ChEMBL document CHEMBL4330114 (Bioorg Med Chem, 2019)
Values after ≈ are worked out from the molar mass of the structure shown.

What was measured:
[1] = tested on: Human immunodeficiency virus 1; assay: Antiviral activity against wild type HIV1 3B infected in human MT4 cells assessed as inhibition of virus-induced cytopathic effect after 5 days by MTT assay; type: functional, organism-based; settings: Human immunodeficiency virus 1, 3B, MT4, 120 h
[2] = tested on: Human immunodeficiency virus 1; assay: Antiviral activity against HIV1 RES056 containing reverse transcriptase K103N + Y181C mutant infected in human MT4 cells assessed as inhibition of virus-induced cytopathic effect after 5 days by MTT assay; type: functional, organism-based; settings: Human immunodeficiency virus 1, RES056, MT4, 120 h
[3] = Cytotoxicity against mock-infected human MT4 cells assessed as reduction in cell viability after 5 days by MTT assay; type: cell-based
[4] = Selectivity index, ratio of CC50 for mock-infected human MT4 cells to EC50 for wild type HIV1 3B infected in human MT4 cells; type: toxicity, cell-based; settings: read-out: Selectivity Index
[5] = Selectivity index, ratio of CC50 for mock-infected human MT4 cells to EC50 for HIV1 RES056 RES056 containing reverse transcriptase K103N + Y181C mutant infected in human MT4 cells; type: toxicity, cell-based; settings: read-out: Selectivity Index
[6] = Selectivity index, ratio of CC50 for mock-infected human MT4 cells to EC50 for HIV2 ROD infected in human MT4 cells; type: toxicity, cell-based; settings: read-out: Selectivity Index
[7] = biological target: Human immunodeficiency virus type 1 reverse transcriptase (Human immunodeficiency virus 1, UniProt Q72547); assay: Inhibition of recombinant wild type HIV1 reverse transcriptase assessed as reduction in biotin-dUTP incorporation using poly(A)/oligo(dT)15 as template/primer after 1 hr by ELISA
[8] = tested on: Human immunodeficiency virus 2; assay: Antiviral activity against HIV2 ROD infected in human MT4 cells assessed as inhibition of virus-induced cytopathic effect after 5 days by MTT assay; settings: Human immunodeficiency virus 2, ISOLATE ROD, MT4, 120 h
[9] = tested on: Human immunodeficiency virus 1; assay: Potency index, ratio of lamivudine EC50 to compound EC50 for antiviral activity against wild type HIV1 3B infected in human MT4 cells; type: functional
[10] = Aqueous solubility of the compound in water at pH 7.0 after overnight incubation by HPLC-UV analysis; type: physicochemical
[11] = Aqueous solubility of the compound in phosphate buffer of pH 7.4 after overnight incubation by HPLC-UV analysis; type: physicochemical
[12] = Aqueous solubility of the compound at phosphate buffer of pH 2.0 after overnight incubation by HPLC-UV analysis; type: physicochemical
[13] = Half life of the compound in phosphate buffer of pH 2.0 by HPLC-UV analysis; type: physicochemical
[14] = Half life of the compound in phosphate buffer of pH 7.4 by HPLC-UV analysis; type: physicochemical
[15] = Solubility of the compound; type: physicochemical

SMILES	EC50 [1]	EC50 [2]	CC50 at 120 h [3]	selectivity ratio [4]	selectivity ratio [5]	selectivity ratio [6]	IC50 [7]	EC50 [8]	Ratio EC50 [9]	solubility [10]	solubility [11]	solubility [12]	half-life [13]	half-life [14]	solubility [15]
N#Cc1cc(Cl)cc(Oc2c(C(F)(F)F)ccn(CC(=O)Nc3ccc(C(F)(F)F)cc3)c2=O)c1	12.3 µM	> 82.3 µM	82.3 µM	7	< 1	< 1	30.1 µM	> 82.3 µM	–	–	–	–	–	–	–
Cn1c(Cn2ccc(C(F)(F)F)c(Oc3cc(Cl)cc(C#N)c3)c2=O)n[nH]c1=O [DORAVIRINE]	0.013 µM	0.015 µM	> 294 µM	–	–	–	0.019 µM	142 µM	–	–	–	–	–	–	–
N#Cc1cc(Cl)cc(Oc2c(C(F)(F)F)ccn(CC(=O)Nc3ccc(Br)cc3)c2=O)c1	> 87.9 µM	> 87.9 µM	87.9 µM	< 1	< 1	< 1	92.5 µM	> 87.9 µM	–	–	–	–	–	–	–
Nc1ccn([C@@H]2CS[C@H](CO)O2)c(=O)n1 [LAMIVUDINE]	12.8 µM	7.77 µM	> 87.3 µM	> 7	> 11	–	–	≥ 17.1 µM	–	–	–	–	–	–	–
O=C1Nc2ccc(Cl)cc2[C@@](C#CC2CC2)(C(F)(F)F)O1 [EFAVIRENZ]	0.007 µM	0.244 µM	> 3.16 µM	–	–	–	–	–	–	–	–	–	–	–	–
N#Cc1cc(Cl)cc(Oc2c(C(F)(F)F)ccn(CC(=O)Nc3ncn[nH]3)c2=O)c1	0.0548 µM	0.196 µM	> 285 µM	> 5200	> 1450	> 2	0.522 µM	182 µM	234	–	–	–	–	–	–
CC(C)OC(=O)OCn1nc(Cn2ccc(C(F)(F)F)c(Oc3cc(Cl)cc(C#N)c3)c2=O)n(C)c1=O	1.22 µM	> 231 µM	> 231 µM	> 189	1	> 2	2.11 µM	152 µM	–	27 µg/mL (≈ 49.8 µM)	29 µg/mL (≈ 53.5 µM)	14 µg/mL (≈ 25.8 µM)	–	–	–
N#Cc1cc(Cl)cc(Oc2c(C(F)(F)F)ccn(CC(=O)Nc3ccn[nH]3)c2=O)c1	6.34 µM	> 41.9 µM	≥ 41.9 µM	≥ 7	1	1	19.4 µM	134 µM	–	–	–	–	–	–	–
N#Cc1cc(Cl)cc(Oc2c(C(F)(F)F)ccn(CC(=O)Nc3cn[nH]c3)c2=O)c1	0.0595 µM	0.343 µM	46.1 µM	775	134	≤ 1	1.25 µM	≥ 33.4 µM	–	–	–	–	–	–	–
N#Cc1cc(Cl)cc(Oc2c(C(F)(F)F)ccn(CC(=O)Nc3ccc([N+](=O)[O-])cc3)c2=O)c1	1.4 µM	> 254 µM	> 254 µM	> 181	1	> 2	1.27 µM	145 µM	–	–	–	–	–	–	–
Cn1c(Cn2ccc(C(F)(F)F)c(Oc3cc(Cl)cc(C#N)c3)c2=O)nn(COP(=O)(O)O)c1=O	0.262 µM	> 234 µM	> 234 µM	> 893	1	1	0.93 µM	> 234 µM	–	4560 µg/mL (≈ 8510 µM)	5190 µg/mL (≈ 9680 µM)	4220 µg/mL (≈ 7870 µM)	> 24 h	> 24 h	–
Cc1cc(C#N)cc(C)c1Oc1nc(Nc2ccc(C#N)cc2)nc(N)c1Br [ETRAVIRINE]	–	–	–	–	–	–	–	–	–	–	–	–	–	–	< 1 µg/mL
N#Cc1cc(Cl)cc(Oc2c(C(F)(F)F)ccn(CC(=O)Nc3ccc(F)cc3)c2=O)c1	188 µM	> 269 µM	> 269 µM	> 1	1	1	72 µM	> 269 µM	–	–	–	–	–	–	–
N#Cc1cc(Cl)cc(Oc2c(C(F)(F)F)ccn(CC(=O)Nc3cccnc3)c2=O)c1	> 111 µM	> 111 µM	111 µM	< 1	< 1	< 1	133 µM	> 111 µM	–	–	–	–	–	–	–
N#Cc1cc(Cl)cc(Oc2c(C(F)(F)F)ccn(CC(=O)Nc3cnccn3)c2=O)c1	29.4 µM	> 183 µM	≥ 183 µM	≥ 6	1	1	63.4 µM	> 183 µM	–	–	–	–	–	–	–
CS(=O)(=O)c1ccc(NC(=O)Cn2ccc(C(F)(F)F)c(Oc3cc(Cl)cc(C#N)c3)c2=O)cc1	42.1 µM	> 112 µM	112 µM	3	< 1	< 1	1 µM	> 112 µM	–	–	–	–	–	–	–
N#Cc1cc(Cl)cc(Oc2c(C(F)(F)F)ccn(CC(=O)Nc3ccncc3)c2=O)c1	32.4 µM	> 133 µM	133 µM	4	< 1	< 1	32.5 µM	> 133 µM	–	–	–	–	–	–	–
